Values after ≈ are worked out from the molar mass of the structure shown. *1 amine or outer side, *2 acyl side, *3 side chain or, on linkers, in order; H or OH if unused. Where a SMILES comes first, the peptide text is derived from it. Bridges are numbered along the chain shown (N, C = ends). [ ]: non-standard residue; d: D form. The star is where a group is joined. ξ: configuration not given here. X1 = C[C@@H](N=[N+]=[N-])[C@H](N[*:1])C(=O)[*:2]; Octanoyl(7-Me) = CC(C)CCCCCC(=O)*; Hexanoyl(4ξ-Me) = CCC(C)CCC(=O)*; dOrn = NCCC[C@@H](N)C(=O)O; Orn = NCCC[C@H](N)C(=O)O
Key:
P. aeruginosa PAO1 = type: cell-based, Pseudomonas aeruginosa; conditions: microbroth dilution per CLSI, MHB, 18 h at 37 °C, visual inspection, three technical replicates
Procedure, shortened: (§1)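 MIC taken as the lowest concentration with no visible growth after 18 h, 37 °C, shaking, three technical replicates. Peptides were serially diluted in MHB and received cells from TSB cultures at OD600 ~0.5, diluted to 2 × 10^5 CFU/mL (kanamycin selection for the mcr-1 E. coli), following CLSI guidelines.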

A. baumannii ATCC 17961 = type: cell-based, Acinetobacter baumannii; conditions: microbroth dilution per CLSI, MHB, 18 h at 37 °C, visual inspection, three technical replicates
Procedure, shortened: as §1

E. coli ATCC 25922 = type: cell-based, Escherichia coli; conditions: for Antibacterial activity (MIC) E. coli ATCC 25922: microbroth dilution per CLSI, MHB, 18 h at 37 °C, visual inspection, three technical replicates; for MIC (µg/mL) against E. coli (ATCC 25922): (Supplement 2)
Procedure, shortened: as §1

E. coli (MCR-1) = type: cell-based, Escherichia coli; conditions: microbroth dilution per CLSI, MHB, 18 h at 37 °C, visual inspection, three technical replicates, E. coli 25922 carrying mcr-1
Procedure, shortened: as §1

K. pneumoniae ATCC 13883 = type: cell-based, Klebsiella pneumoniae; conditions: microbroth dilution per CLSI, MHB, 18 h at 37 °C, visual inspection, three technical replicates
Procedure, shortened: as §1

S. aureus USA300 = type: cell-based, Staphylococcus aureus; conditions: microbroth dilution per CLSI, MHB, 18 h at 37 °C, visual inspection, three technical replicates
Procedure, shortened: as §1

| Compound | Antibacterial activity (MIC) P. aeruginosa PAO1 (P. aeruginosa PAO1) [µg/mL] | Antibacterial activity (MIC) A. baumannii ATCC 17961 (A. baumannii ATCC 17961) [µg/mL] | Antibacterial activity (MIC) E. coli ATCC 25922 (E. coli ATCC 25922) [µg/mL] | Antibacterial activity (MIC) E. coli (MCR-1) (E. coli (MCR-1)) [µg/mL] | Antibacterial activity (MIC) K. pneumoniae ATCC 13883 (K. pneumoniae ATCC 13883) [µg/mL] | Antibacterial activity (MIC) S. aureus USA300 (S. aureus USA300) [µg/mL] | MIC (µg/mL) against E. coli (ATCC 25922) (E. coli ATCC 25922) [µg/mL] |
| --- | --- | --- | --- | --- | --- | --- | --- |
| CCC(C)CCC(=O)N[C@H](CC(N)=O)C(=O)N[C@H](Cc1ccc(O)cc1)C(=O)N[C@H](Cc1c[nH]c2ccccc12)C(=O)N[C@H](CCCN)C(=O)N[C@@H](CCCN)C(=O)NCC(=O)N[C@H](CCCN)C(=O)N[C@@H](Cc1c[nH]c2ccccc12)C(=O)N[C@@H]1C(=O)N[C@@H]([C@@H](C)CC)C(=O)NCC(=O)N[C@@H](CO)C(=O)O[C@@H]1C (stereo partly drawn) [Brev (1), brevicidine] ({Hexanoyl(4ξ-Me)}-[dN][dY][dW][dOrn][Orn]G[dOrn]WTIGS; ester 9-C) | 8 | 4 | 4 | 4 | 2 | >32 |  |
| CC[C@H](C)[C@H](NC(=O)[C@@H](NC(=O)[C@H](Cc1c[nH]c2ccccc12)NC(=O)[C@@H](CCCN)NC(=O)CNC(=O)[C@H](CCCN)NC(=O)[C@@H](CCCN)NC(=O)[C@@H](Cc1c[nH]c2ccccc12)NC(=O)[C@@H](Cc1ccc(O)cc1)NC(=O)[C@@H](CO)NC(=O)CCCCCC(C)C)[C@@H](C)O)C(=O)N[C@@H](CC(N)=O)C(=O)NCC(N)=O [Δ13LL-NH2 (8)] ({Octanoyl(7-Me)}-[dS][dY][dW][dOrn][Orn]G[dOrn]WTING-NH2) | 4 | 4 | 8 | 8 | 4 to 8 | >32 |  |
| CCC(C)CCC(=O)N[C@H](CC(N)=O)C(=O)N[C@H](Cc1ccc(O)cc1)C(=O)N[C@H](Cc1c[nH]c2ccccc12)C(=O)N[C@H](CCCN)C(=O)N[C@@H](CCCN)C(=O)NCC(=O)N[C@H](CCCN)C(=O)N[C@@H](Cc1c[nH]c2ccccc12)C(=O)N[C@@H](CC(=O)O)C(=O)N[C@H](C(=O)NCC(N)=O)[C@@H](C)CC (stereo partly drawn) [Δ12LB (Asp9)-NH2 (63)] ({Hexanoyl(4ξ-Me)}-[dN][dY][dW][dOrn][Orn]G[dOrn]WDIG-NH2) | 4 | >32 | >32 | >32 | >32 | >32 | 4 (≈ 2.73 µM) |
| CC[C@H](C)[C@H](NC(=O)[C@@H](NC(=O)[C@H](Cc1c[nH]c2ccccc12)NC(=O)[C@@H](CCCN)NC(=O)CNC(=O)[C@H](CCCN)NC(=O)[C@@H](CCCN)NC(=O)[C@@H](Cc1c[nH]c2ccccc12)NC(=O)[C@@H](Cc1ccc(O)cc1)NC(=O)[C@@H](CO)NC(=O)CCCCCC(C)C)[C@@H](C)O)C(=O)N[C@@H](CC(N)=O)C(=O)NCC(=O)N[C@@H](C)C(N)=O [LL(Ala13)-NH2 (41)] ({Octanoyl(7-Me)}-[dS][dY][dW][dOrn][Orn]G[dOrn]WTINGA-NH2) | 4 | 8 | 4 to 8 | 8 | 8 | >32 | 4 to 8 |
| CC[C@H](C)[C@H](NC(=O)[C@H](Cc1ccccc1)NC(=O)[C@H](Cc1c[nH]c2ccccc12)NC(=O)[C@@H](CCCN)NC(=O)CNC(=O)[C@H](CCCN)NC(=O)[C@@H](CCCN)NC(=O)[C@@H](Cc1c[nH]c2ccccc12)NC(=O)[C@@H](Cc1ccc(O)cc1)NC(=O)[C@@H](CO)NC(=O)CCCCCC(C)C)C(=O)N[C@@H](CC(N)=O)C(=O)NCC(=O)NCC(N)=O [LL(Phe9)-NH2 (43)] ({Octanoyl(7-Me)}-[dS][dY][dW][dOrn][Orn]G[dOrn]WFINGG-NH2) | 8 | 4 | 4 | 4 | 8 | >32 | 4 (≈ 2.4 µM) |
| CCC(C)CCC(=O)N[C@H](CC(N)=O)C(=O)N[C@H](Cc1ccc(O)cc1)C(=O)N[C@H](Cc1c[nH]c2ccccc12)C(=O)N[C@H](CCCN)C(=O)N[C@@H](CCCN)C(=O)NCC(=O)N[C@H](CCCN)C(=O)N[C@@H](Cc1c[nH]c2ccccc12)C(=O)N[C@H](C(=O)N[C@H](C(=O)NCC(N)=O)[C@@H](C)CC)[C@@H](C)N=[N+]=[N-] (stereo partly drawn) [Δ12LB (MeAbu9)-NH2 (60)] ({Hexanoyl(4ξ-Me)}-[dN][dY][dW][dOrn][Orn]G[dOrn]W[X1]IG-NH2) | 4 | 2 | 4 | 4 | 2 | >32 | 8 (≈ 5.42 µM) |
| CC[C@H](C)[C@H](NC(=O)[C@H](CC(N)=O)NC(=O)[C@H](Cc1c[nH]c2ccccc12)NC(=O)[C@@H](CCCN)NC(=O)CNC(=O)[C@H](CCCN)NC(=O)[C@@H](CCCN)NC(=O)[C@@H](Cc1c[nH]c2ccccc12)NC(=O)[C@@H](Cc1ccc(O)cc1)NC(=O)[C@@H](CO)NC(=O)CCCCCC(C)C)C(=O)N[C@@H](CC(N)=O)C(=O)NCC(=O)NCC(N)=O [LL(Asn9)-NH2 (47)] ({Octanoyl(7-Me)}-[dS][dY][dW][dOrn][Orn]G[dOrn]WNINGG-NH2) | 8 | 16 | 8 | 8 | 8 to 16 | >32 | 8 (≈ 4.89 µM) |
| CC[C@H](C)[C@H](NC(=O)[C@@H](NC(=O)[C@H](C)NC(=O)[C@@H](CCCN)NC(=O)CNC(=O)[C@H](CCCN)NC(=O)[C@@H](CCCN)NC(=O)[C@@H](Cc1c[nH]c2ccccc12)NC(=O)[C@@H](Cc1ccc(O)cc1)NC(=O)[C@@H](CO)NC(=O)CCCCCC(C)C)[C@@H](C)O)C(=O)N[C@@H](CC(N)=O)C(=O)NCC(=O)NCC(N)=O [LL(Ala8)-NH2 (36)] ({Octanoyl(7-Me)}-[dS][dY][dW][dOrn][Orn]G[dOrn]ATINGG-NH2) | 32 | >32 | >32 | >32 | >32 | >32 |  |
| CC[C@H](C)[C@H](NC(=O)[C@@H](NC(=O)[C@H](Cc1c[nH]c2ccccc12)NC(=O)[C@@H](CCCN)NC(=O)CNC(=O)[C@H](CCCN)NC(=O)[C@@H](CCCN)NC(=O)[C@@H](Cc1c[nH]c2ccccc12)NC(=O)[C@@H](Cc1ccc(O)cc1)NC(=O)[C@@H](CO)NC(=O)CCCCCC(C)C)[C@@H](C)O)C(=O)N[C@@H](CC(N)=O)C(N)=O [Δ12–13LL-NH2 (10)] ({Octanoyl(7-Me)}-[dS][dY][dW][dOrn][Orn]G[dOrn]WTIN-NH2) | 4 | 4 | 4 | 8 | 8 to 16 | >32 |  |
| CCC(C)CCC(=O)N[C@H](CC(N)=O)C(=O)N[C@H](Cc1ccc(O)cc1)C(=O)N[C@H](Cc1c[nH]c2ccccc12)C(=O)N[C@H](CCCN)C(=O)N[C@@H](CCCN)C(=O)NCC(=O)N[C@H](CCCN)C(=O)N[C@@H](Cc1c[nH]c2ccccc12)C(=O)N[C@@H](CC(N)=O)C(=O)N[C@H](C(=O)NCC(N)=O)[C@@H](C)CC (stereo partly drawn) [Δ12LB (Asn9)-NH2 (58)] ({Hexanoyl(4ξ-Me)}-[dN][dY][dW][dOrn][Orn]G[dOrn]WNIG-NH2) | 2 | 16 | 8 | 8 | 16 | >32 | 4 (≈ 2.73 µM) |

From publication PMC10150354, “Linearization of the Brevicidine and Laterocidine Lipopeptides Yields Analogues That Retain Full Antibacterial Activity” (Journal of Medicinal Chemistry, 2023)
